Assays:
[1] = Antiproliferative activity against human hTERT-HME1 cells after 72 hrs by Alamar blue assay; assay type: cell-based
Liver = test: Intrinsic clearance in mouse liver microsomes assessed as per mg of protein; assay type: ADME, Microsome
HCT-116 = test: Antiproliferative activity against human HCT116 cells after 72 hrs by Alamar blue assay; assay type: functional; conditions: HCT-116, 72 h
BXPC-3 = test: Antiproliferative activity against human BxPC3 cells after 72 hrs by Alamar blue assay; assay type: functional; conditions: BXPC-3, 72 h
[2] = Intrinsic clearance in human hepatocytes assessed as per million cells; assay type: ADME, cell-based, Hepatocyte
Liver microsomes = test: Intrinsic clearance in human liver microsomes assessed as per mg of protein; assay type: ADME, Microsome
NCI-H1299 = test: Antiproliferative activity against human NCI-H1299 cells after 72 hrs by Alamar blue assay; assay type: functional; conditions: NCI-H1299, 72 h
K562 = test: cells; conditions: Homo sapiens, K562, 72 h
Description: Antiproliferative activity against human K562 cells after 72 hrs by Alamar blue assay

[3] = Half life at pH 1.0 assessed as compound hydrolysis; assay type: physicochemical; conditions: buffer
[4] = biological target: T1, Kinesin-like protein KIF11 (Homo sapiens, UniProt P52732)
T1 sequence (P52732 whole entry): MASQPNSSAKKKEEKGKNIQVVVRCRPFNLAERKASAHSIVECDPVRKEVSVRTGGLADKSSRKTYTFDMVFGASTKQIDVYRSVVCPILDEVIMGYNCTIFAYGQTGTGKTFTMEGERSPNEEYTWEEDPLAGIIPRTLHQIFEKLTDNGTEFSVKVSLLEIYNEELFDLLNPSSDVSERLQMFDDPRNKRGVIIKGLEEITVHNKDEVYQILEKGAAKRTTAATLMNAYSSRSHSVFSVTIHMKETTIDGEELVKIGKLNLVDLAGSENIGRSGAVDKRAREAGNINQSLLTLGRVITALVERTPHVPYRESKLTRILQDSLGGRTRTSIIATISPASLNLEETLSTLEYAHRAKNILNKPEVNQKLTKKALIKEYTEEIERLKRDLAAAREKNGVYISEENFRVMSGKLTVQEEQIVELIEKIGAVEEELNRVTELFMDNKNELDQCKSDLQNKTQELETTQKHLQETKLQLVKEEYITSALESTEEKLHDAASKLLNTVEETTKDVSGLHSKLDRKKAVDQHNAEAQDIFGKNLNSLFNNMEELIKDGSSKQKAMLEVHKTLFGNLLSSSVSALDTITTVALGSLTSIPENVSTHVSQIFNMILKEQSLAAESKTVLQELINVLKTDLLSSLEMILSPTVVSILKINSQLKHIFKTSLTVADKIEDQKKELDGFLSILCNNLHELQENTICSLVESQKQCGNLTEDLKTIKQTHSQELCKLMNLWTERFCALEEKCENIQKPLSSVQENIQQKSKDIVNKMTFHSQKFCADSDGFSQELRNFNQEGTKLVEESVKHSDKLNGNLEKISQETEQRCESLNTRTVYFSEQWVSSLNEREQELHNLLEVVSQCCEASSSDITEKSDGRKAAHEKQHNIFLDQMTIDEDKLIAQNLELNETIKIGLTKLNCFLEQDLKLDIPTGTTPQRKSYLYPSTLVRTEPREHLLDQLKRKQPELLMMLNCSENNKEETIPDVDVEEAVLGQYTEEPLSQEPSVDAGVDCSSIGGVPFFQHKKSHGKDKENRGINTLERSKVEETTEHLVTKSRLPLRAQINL

[5] = biological target: T1, Kinesin-like protein KIF11; remark: listed apart in the source

## Cc1cccc(C(CC[C@@H](N)C(=O)O)(c2ccccc2)c2ccccc2)c1
[1]
  GI50 at 72 h: 0.026 µM
Liver
  CLH: Stable
HCT-116
  GI50: 0.051 µM
BXPC-3
  GI50: 0.075 µM
[2]
  CLH: Stable
Liver microsomes
  CLH: Stable
NCI-H1299
  GI50: 0.132 µM

## NCCSC(c1ccccc1)(c1ccccc1)c1cccc(C(=O)O)c1
K562
  GI50: 2.14 µM

## NCCOC(c1ccccc1)(c1ccccc1)c1ccccc1
[3]
  t1/2: 2.5 h

## NCCSC(c1ccccc1)(c1ccccc1)c1cccc(Cl)c1
K562
  GI50: 1.04 µM
[4]
  Ki: 0.298 µM

## NCCCC(c1ccccc1)(c1ccccc1)c1ccc(Cl)cc1
[1]
  GI50 at 72 h: 0.308 µM
HCT-116
  GI50: 0.23 µM
BXPC-3
  GI50: 2.31 µM
K562
  GI50: 0.337 µM
NCI-H1299
  GI50: 0.828 µM

## NCCCC(c1ccccc1)(c1ccccc1)c1cccc(Cl)c1
K562
  GI50: 0.596 µM

## Cc1ccc(C(CC[C@@H](N)C(=O)O)(c2ccccc2)c2ccccc2)cc1
[1]
  GI50 at 72 h: 0.027 µM
HCT-116
  GI50: 0.04 µM
BXPC-3
  GI50: 0.085 µM
K562
  GI50: 0.082 µM
NCI-H1299
  GI50: 0.111 µM

## NCCNC(c1ccccc1)(c1ccccc1)c1ccccc1
[3]
  t1/2: 7 h
[4]
  Ki: 2.66 µM

## NCCSC(c1ccccc1)(c1ccccc1)c1ccc(CN)cc1
K562
  GI50: 2.59 µM

## CN(C)C(=O)c1ccc(C(SCCN)(c2ccccc2)c2ccccc2)cc1
K562
  GI50: 2.91 µM

## Cc1ccc(C(SC[C@H](N)C(=O)O)(c2ccccc2)c2ccccc2)cc1
[1]
  GI50 at 72 h: 0.057 µM
HCT-116
  GI50: 0.13 µM
BXPC-3
  GI50: 0.284 µM
[5]
  Ki: 0.0136 µM
K562
  GI50: 0.242 µM
NCI-H1299
  GI50: 0.242 µM

## CC(C)c1cccc(C(SCCN)(c2ccccc2)c2ccccc2)c1
K562
  GI50: 0.581 µM

## NCCSC(c1ccccc1)(c1ccccc1)c1cccc(CN)c1
K562
  GI50: 2.02 µM

## N[C@@H](CSC(c1ccccc1)(c1ccccc1)c1ccccc1)C(=O)O [S-TRITYL-L-CYSTEINE]
[1]
  GI50 at 72 h: 0.361 µM

## CSc1cccc(C(SCCN)(c2ccccc2)c2ccccc2)c1
K562
  GI50: 1.47 µM
[4]
  Ki: 0.52 µM

## NCCSC(c1ccccc1)(c1ccccc1)c1cccc(F)c1
[4]
  Ki: 0.377 µM

## CC(=O)c1cccc(C(SCCN)(c2ccccc2)c2ccccc2)c1
K562
  GI50: 0.706 µM

## COc1cccc(C(SCCN)(c2ccccc2)c2ccccc2)c1
[4]
  Ki: 0.15 µM

## N[C@@H](CSC(c1ccccc1)(c1ccccc1)c1cccc(Cl)c1)C(=O)O
K562
  GI50: 2.4 µM
[4]
  Ki: 0.0899 µM

## Cc1ccc(C(CCCN)(c2ccccc2)c2ccccc2)cc1
[1]
  GI50 at 72 h: 0.601 µM
HCT-116
  GI50: 0.154 µM
BXPC-3
  GI50: 1.6 µM
NCI-H1299
  GI50: 0.376 µM

## NCCSC(c1ccccc1)(c1ccccc1)c1cccc(OC(F)(F)F)c1
K562
  GI50: 1.52 µM

## N[C@H](CCC(c1ccccc1)(c1ccccc1)c1ccccc1)C(=O)O
[1]
  GI50 at 72 h: 0.321 µM
HCT-116
  GI50: 0.472 µM
BXPC-3
  GI50: 1.12 µM
K562
  GI50: 0.776 µM
NCI-H1299
  GI50: 1.32 µM

## CC(=O)NCc1cccc(C(SCCN)(c2ccccc2)c2ccccc2)c1
K562
  GI50: 2.13 µM

## CC(=O)c1ccc(C(SC[C@H](N)C(=O)O)(c2ccccc2)c2ccccc2)cc1
K562
  GI50: 4.27 µM
[4]
  Ki: 0.272 µM

## CC(=O)NCc1ccc(C(SCCN)(c2ccccc2)c2ccccc2)cc1
K562
  GI50: 2.9 µM

## Cc1ccc(C(CCC(N)C(=O)O)(c2ccccc2)c2ccccc2)cc1 (racemic)
[1]
  GI50 at 72 h: 0.044 µM
HCT-116
  GI50: 0.084 µM
BXPC-3
  GI50: 0.151 µM
NCI-H1299
  GI50: 0.204 µM

## N[C@@H](CNC(c1ccccc1)(c1ccccc1)c1ccccc1)C(=O)O
[3]
  t1/2: <= 2.9 hr

## CC(=O)c1ccc(C(SCCN)(c2ccccc2)c2ccccc2)cc1
K562
  GI50: 0.705 µM

## N[C@@H](CCC(c1ccccc1)(c1ccccc1)c1ccccc1)C(=O)O
[1]
  GI50 at 72 h: 0.721 µM
HCT-116
  GI50: 1.6 µM
BXPC-3
  GI50: 4.86 µM
K562
  GI50: 2.06 µM
NCI-H1299
  GI50: 4.02 µM

## NC(CCC(c1ccccc1)(c1ccccc1)c1ccccc1)C(=O)O (racemic)
[1]
  GI50 at 72 h: 0.494 µM
HCT-116
  GI50: 0.828 µM
BXPC-3
  GI50: 1.49 µM
K562
  GI50: 0.865 µM
NCI-H1299
  GI50: 2.83 µM

## COc1ccc(C(SC[C@H](N)C(=O)O)(c2ccccc2)c2ccccc2)cc1
[1]
  GI50 at 72 h: 0.081 µM

## CC(=O)c1cccc(C(SC[C@H](N)C(=O)O)(c2ccccc2)c2ccccc2)c1
K562
  GI50: 0.964 µM

## CNC(=O)c1cccc(C(SCCN)(c2ccccc2)c2ccccc2)c1
K562
  GI50: 0.982 µM

## N#Cc1ccc(C(SCCN)(c2ccccc2)c2ccccc2)cc1
K562
  GI50: 2.18 µM
[4]
  Ki: 0.432 µM

## NCCSC(c1ccccc1)(c1ccccc1)c1cccc(C(F)(F)F)c1
[4]
  Ki: 0.353 µM

## CN(C)C(=O)c1cccc(C(SCCN)(c2ccccc2)c2ccccc2)c1
K562
  GI50: 2.83 µM
[4]
  Ki: 6.06 µM

## NCCSC(c1ccccc1)(c1ccccc1)c1ccccc1
[1]
  GI50 at 72 h: 1.61 µM
HCT-116
  GI50: 1.21 µM
BXPC-3
  GI50: 2.46 µM
[5]
  Ki: 0.152 µM
K562
  GI50: 2.29 µM
[4]
  Ki: 0.246 µM
NCI-H1299
  GI50: 2.3 µM

## NCCSC(c1ccccc1)(c1ccccc1)c1ccc(CO)cc1
K562
  GI50: 0.783 µM

## NCCCC(c1ccccc1)(c1ccccc1)c1ccccc1
[1]
  GI50 at 72 h: 0.572 µM
HCT-116
  GI50: 0.213 µM
BXPC-3
  GI50: 1.23 µM
NCI-H1299
  GI50: 0.964 µM

## CNC(=O)c1ccc(C(SCCN)(c2ccccc2)c2ccccc2)cc1
K562
  GI50: 3.95 µM

## NCCSC(c1ccccc1)(c1ccccc1)c1ccc(C(N)=O)cc1
K562
  GI50: 4.33 µM

## CS(=O)(=O)c1ccc(C(SCCN)(c2ccccc2)c2ccccc2)cc1
K562
  GI50: 2.73 µM

## Cc1cccc(C(SCCN)(c2ccccc2)c2ccccc2)c1
K562
  GI50: 0.698 µM

## N[C@@H](CSC(c1ccccc1)(c1ccccc1)c1ccc2ccccc2c1)C(=O)O
[1]
  GI50 at 72 h: 0.119 µM
HCT-116
  GI50: 0.153 µM
BXPC-3
  GI50: 0.245 µM
[5]
  Ki: 0.0042 µM
K562
  GI50: 0.247 µM
NCI-H1299
  GI50: 0.227 µM

## Cc1ccc(C(CC[C@H](N)C(=O)O)(c2ccccc2)c2ccccc2)cc1
[1]
  GI50 at 72 h: 0.049 µM
HCT-116
  GI50: 0.115 µM
BXPC-3
  GI50: 0.268 µM
K562
  GI50: 0.149 µM
NCI-H1299
  GI50: 0.305 µM

## CS(=O)(=O)c1cccc(C(SCCN)(c2ccccc2)c2ccccc2)c1
K562
  GI50: 2.56 µM

## N#Cc1cccc(C(SCCN)(c2ccccc2)c2ccccc2)c1
[4]
  Ki: 0.451 µM

From ChEMBL document CHEMBL2021885, “Triphenylbutanamines: kinesin spindle protein inhibitors with in vivo antitumor activity” (J Med Chem, 2012)
